Data as given in patent US20240091254A1, “WNT AGONISTS FOR PREVENTION OF CANCER” (ACADEMISH MEDISCH CENTRUM, priority 2021, published 2024).

Assays:
[1] = tested on: Wnt pathway (TOP-GFP reporter); assay: TOP-GFP Wnt reporter assay in MEFs; type: cell-based, mouse
Experimental: Mouse embryonic fibroblasts (MEFs, ATCC) and HEK293T (ATCC) cells were both cultured in Dulbecco's Modified Eagle's Medium (DMEM) supplemented with 10% fetal calf serum (FCS), 1% Glutamine, and antibiotic penicillin and streptomycin. Cells were maintained at 37° C. in humidified air containing 5% CO2. All cell lines were routinely checked for mycoplasm contamination, no cell line authentication was performed.
Mouse embryonic fibroblasts (MEFs) were cultured in Dulbecco's Modified Eagle's Medium (DMEM) supplemented with 10% fetal calf serum (FCS), 1% Glutamine, and antibiotic penicillin and streptomycin. MEFs were stably transduced with Wnt reporter TOP-GFP (Addgene plasmid #35491). For TOP-GFP assays, cells were stimulated with Wnt3A conditioned medium for 24 hours after which GFP positivity was measured by flow cytometry.

WT organoids = assay: Murine WT intestinal organoids incubated with conditioned medium or recombinant Wnt antagonists (expansion, clonogenicity); type: cell-based, mouse; details: for Expansion and clonogenicity of WT organoids: overexpression CM or recombinant protein: NOTUM 2 μg/mL, WIF1 5 μg/mL, DKK2 1 μg/mL
Experimental: Murine intestinal crypts were isolated from Lgr5-EGFP-IRES-Cre^ERT2, Lgr5-EGFP-IRES-Cre^ERT2;Ape/or Villin-Cre^ERT2;Apc^fl/fl mice as described by Sato et al.^35. In short, intestines were removed from the mouse and washed thoroughly with ice-cold PBS. Next, the intestine was opened longitudinally and the villi were gently scraped off by a glass cover slide. The intestine was cut into pieces of 5×5 mm and incubated in 2 mM EDTA solution for 30 min. at 4° C. After removal of the EDTA, the crypts were resuspended in ice-cold 1% FCS in PBS by vigorously shaking the tube and passing the supernatant through a 70 µm strainer. Isolated crypts were resuspended in Matrigel® (Corning) and seeded in pre-heated 24-well plates, supplemented with basal organoid medium consisting of advanced DMEM/F12 medium (Gibco) containing 100× N2 and 50× B27 supplements, 100× Glutamax, 5 mM HEPES, 1 mM N-acetyl-L-cysteine (Sigma), and 100× antibiotic/antimycotic (all Gibco). The basal organoid medium was freshly supplemented with the following growth factors: mouse EGF 50 ng/ml (TEBU-BIO), R-spondin (conditioned medium), Noggin (conditioned medium). The first two days after crypt isolation CHIR99021 (Axon Medchem) and ROCK inhibitor (Sigma) was added to the medium. Ctnnb1^S organoids expressing a constitutive active variant of β-catenin were generated as described by Adam et al.^36. For in vitro recombination of loxP flanked alleles, 1 μM 40H-Tamoxifen (Sigma) was added to the medium. Recombination of the Apc gene was validated by digital droplet PCR (Bio-Rad) using EvaGreen® Supermix (Bio-Rad). Lgr5-EGFP-IRES-Cre^ERT2 organoids, referred to as wild type (WT) organoids, were stably transduced with a red fluorescent mCherry construct (LeGO-C2, Addgene #27399). The in vitro recombined Lgr5-EGFP-IRES-Cre^ERT2;Apc^fl/fl, referred to as Apc^−/−, were stably transduced with a green fluorescent Venus construct (LeGO-V2, Addgene #27340). During competition assays, organoids were plated in equal numbers in 24-well plates and full wells were scanned over time by the EVOS FL Cell Imaging System (Thermo Scientific). Conditioned medium (CM) was taken from 2-3 day old WT or Apc^−/− organoid cultures and freshly supplemented with growth factors R-spondin, Noggin and mEGF. During the competition assays the medium (normal and conditioned) was replaced every other day to minimize effects of medium depletion. To assess the effect of medium depletion, CM was 10× concentrated using 10 kDa Amicon® centrifugal filters (Millipore) and added to fresh ENR medium as 1:10. […] Recombinant proteins NOTUM (2 μg/mL, R&D, 9150-NO-050), WIF1 (5 μg/mL, R&D, 135-WF-050) and DKK2 (1 μg/mL, R&D, 2435-DKB-010) were freshly added to the culture medium, medium was refreshed every other day.

For Cc1c[nH]c(-c2cnc(NCCNc3ccc(C#N)cn3)nc2-c2ccc(Cl)cc2Cl)n1 [CHIR99021], the “Effect on Apc-/- CM reduction of Wnt3a mediated Wnt activation (TOP-GFP)” value ([1]; MEFs, TOP-GFP reporter, 2.5 μM CHIR99021) was “completely abrogated this effect” and the “Resistance to Apc-/- CM induced reduction in proliferation and clonogenicity” value (WT organoids; WT organoids, Apc-/- CM, 2.5 μM CHIR) was “resistant to the Apc^−/− CM induced reduction in proliferation and clonogenicity”.

In the case of O=C([O-])[O-].[Li+].[Li+] [Li2CO3, lithium carbonate], the “Wnt signalling activation in Wnt reporter assay, Li2CO3 compared with LiCl” value ([1]; comparable concentrations (5 or 10 mM)) is reported as “activated the same amount of Wnt signalling”.

Cn1c(=O)c2c(ncn2C)n(C)c1=O [caffeine] was tested, and the “Rescue of Notum-mediated inhibition of Wnt signalling in Wnt reporter assay” value ([1]; 200 μM caffeine) was “can rescue inhibition of Wnt singalling in vitro”, the “Clonogenic capacity of wild type intestinal organoids with Apc-mutant CM” value (WT organoids; Apc-mutant CM containing Notum, 200 μM caffeine) was “rescue in clonogenic capacity” and the “Clonogenic capacity of organoids with CM of Apc-mutant, Notum KO organoids” value (WT organoids; Apc-mutant Notum KO CM, 200 μM caffeine) was “no effect”.

With “Wif1: Wnt antagonist Wnt inhibitory factor 1, as overexpression CM or recombinant protein” the “Expansion and clonogenicity of WT organoids” value (shortened to “Expansion and clonogenicity”) (WT organoids) was “ability to reduce expansion and clonogenicity of WT organoids”.

B1: Dkk2: Wnt antagonist Dickkopf-related protein 2, as overexpression CM or recombinant protein (protein, UniProt Q9UBU2 34-259, looked up)
Dickkopf-related protein 2: KLNSIKSSLGGETPGQAANRSAGMYQGLAFGGSKKGKNLGQAYPCSSDKECEVGRYCHSPHQGSSACMVCRRKKKRCHRDGMCCPSTRCNNGICIPVTESILTPHIPALDGTRHRDRNHGHYSNHDLGWQNLGRPHTKMSHIKGHEGDPCLRSSDCIEGFCCARHFWTKICKPVLHQGEVCTKQRKKGSHGLEIFQRCDCAKGLSCKVWKDATYSSKARLHVCQKI
B1 was tested, and the “Expansion and clonogenicity” value (WT organoids) was “ability to reduce expansion and clonogenicity of WT organoids”.

B2: Notum: Wnt antagonist Palmitoleoyl-Protein Carboxylesterase, as overexpression CM or recombinant protein (protein, UniProt Q6P988 20-496, looked up)
Palmitoleoyl-protein …: SEGRKTWRRRGQQPPPPPRTEAAPAAGQPVESFPLDFTAVEGNMDSFMAQVKSLAQSLYPCSAQQLNEDLRLHLLLNTSVTCNDGSPAGYYLKESRGSRRWLLFLEGGWYCFNRENCDSRYDTMRRLMSSRDWPRTRTGTGILSSQPEENPYWWNANMVFIPYCSSDVWSGASSKSEKNEYAFMGALIIQEVVRELLGRGLSGAKVLLLAGSSAGGTGVLLNVDRVAEQLEKLGYPAIQVRGLADSGWFLDNKQYRHTDCVDTITCAPTEAIRRGIRYWNGVVPERCRRQFQEGEEWNCFFGYKVYPTLRCPVFVVQWLFDEAQLTVDNVHLTGQPVQEGLRLYIQNLGRELRHTLKDVPASFAPACLSHEIIIRSHWTDVQVKGTSLPRALHCWDRSLHDSHKASKTPLKGCPVHLVDSCPWPHCNPSCPTVRDQFTGQEMNVAQFLMHMGFDMQTVAQPQGLEPSELLGMLSNGS
With B2 the “Expansion and clonogenicity” value (WT organoids) was “ability to reduce expansion and clonogenicity of WT organoids”.
